Values quoted from earlier work in patent US20250381170A1, “Low Concentration Delivery of an Ergoline Derivative for Treatment of a Headache” (Relevale, Inc., priority 2021, published 2025).

Legend:
[1] = oral dosage forms
[2] = tested on: noradrenaline α, receptors
dopamine D2L receptors = dopamine D2L receptors (Homo sapiens, UniProt P14416)
[3] = biological target: T1, serotonin 5-HT1A receptors (Homo sapiens, UniProt P08908)
T1 sequence (P08908 1-422): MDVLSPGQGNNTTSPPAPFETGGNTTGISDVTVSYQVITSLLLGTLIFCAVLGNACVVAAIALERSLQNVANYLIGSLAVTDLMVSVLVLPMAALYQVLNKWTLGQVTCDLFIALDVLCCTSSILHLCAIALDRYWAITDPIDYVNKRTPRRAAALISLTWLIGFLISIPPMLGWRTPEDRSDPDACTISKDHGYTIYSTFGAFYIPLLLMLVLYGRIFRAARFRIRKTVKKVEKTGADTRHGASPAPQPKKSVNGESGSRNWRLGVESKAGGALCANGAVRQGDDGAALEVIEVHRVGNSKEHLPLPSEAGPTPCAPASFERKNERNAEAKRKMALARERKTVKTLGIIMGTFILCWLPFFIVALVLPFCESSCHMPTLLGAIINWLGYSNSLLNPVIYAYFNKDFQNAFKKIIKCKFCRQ

dopamine D3 receptors = dopamine D3 receptors (Homo sapiens, UniProt P35462)
Chain of dopamine D3 receptors (P35462 whole entry): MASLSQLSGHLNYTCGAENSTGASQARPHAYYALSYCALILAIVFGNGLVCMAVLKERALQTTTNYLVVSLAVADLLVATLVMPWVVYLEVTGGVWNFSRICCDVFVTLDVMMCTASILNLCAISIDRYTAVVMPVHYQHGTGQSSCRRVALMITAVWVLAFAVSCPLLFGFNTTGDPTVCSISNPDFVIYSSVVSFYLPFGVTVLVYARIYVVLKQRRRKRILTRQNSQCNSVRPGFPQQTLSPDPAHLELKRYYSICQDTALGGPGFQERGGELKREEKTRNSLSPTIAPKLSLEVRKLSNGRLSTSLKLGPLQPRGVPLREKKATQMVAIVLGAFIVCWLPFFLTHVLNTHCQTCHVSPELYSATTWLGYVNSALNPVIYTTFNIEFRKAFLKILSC

[4] = biological target: T2, serotonin 5-HT2C receptors (Homo sapiens, UniProt P28335)
T2 sequence (P28335 33-458): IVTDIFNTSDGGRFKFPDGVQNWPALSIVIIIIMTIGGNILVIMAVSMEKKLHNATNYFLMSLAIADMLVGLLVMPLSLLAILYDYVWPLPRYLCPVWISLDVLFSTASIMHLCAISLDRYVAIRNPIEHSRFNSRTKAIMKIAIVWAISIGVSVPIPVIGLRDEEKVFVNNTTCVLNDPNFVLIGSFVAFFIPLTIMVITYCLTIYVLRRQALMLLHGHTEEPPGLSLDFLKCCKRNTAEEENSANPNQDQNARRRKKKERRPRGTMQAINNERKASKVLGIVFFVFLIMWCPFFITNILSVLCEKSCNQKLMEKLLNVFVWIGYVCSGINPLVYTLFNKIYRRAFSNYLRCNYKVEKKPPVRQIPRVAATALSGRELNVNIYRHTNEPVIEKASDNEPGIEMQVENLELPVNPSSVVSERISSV

[5] = biological target: T3, noradrenaline α2A receptors (Homo sapiens, UniProt P08913)
T3 sequence (P08913 1-465): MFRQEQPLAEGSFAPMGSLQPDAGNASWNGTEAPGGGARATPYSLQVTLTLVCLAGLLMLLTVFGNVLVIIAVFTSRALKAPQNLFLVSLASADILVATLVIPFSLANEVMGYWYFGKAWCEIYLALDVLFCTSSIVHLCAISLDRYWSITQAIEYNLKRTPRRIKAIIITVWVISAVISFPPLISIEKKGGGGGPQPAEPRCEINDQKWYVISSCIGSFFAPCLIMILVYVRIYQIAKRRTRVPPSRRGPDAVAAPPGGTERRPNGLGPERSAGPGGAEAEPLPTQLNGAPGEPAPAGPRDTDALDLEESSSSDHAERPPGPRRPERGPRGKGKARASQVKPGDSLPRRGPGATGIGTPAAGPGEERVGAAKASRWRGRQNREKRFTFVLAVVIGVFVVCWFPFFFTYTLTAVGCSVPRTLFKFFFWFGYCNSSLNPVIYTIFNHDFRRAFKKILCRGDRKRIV

5-HT1Dα receptors = 5-HT1Dα receptors (Homo sapiens, UniProt P28221)
Chain of 5-HT1Dα receptors (P28221 whole entry): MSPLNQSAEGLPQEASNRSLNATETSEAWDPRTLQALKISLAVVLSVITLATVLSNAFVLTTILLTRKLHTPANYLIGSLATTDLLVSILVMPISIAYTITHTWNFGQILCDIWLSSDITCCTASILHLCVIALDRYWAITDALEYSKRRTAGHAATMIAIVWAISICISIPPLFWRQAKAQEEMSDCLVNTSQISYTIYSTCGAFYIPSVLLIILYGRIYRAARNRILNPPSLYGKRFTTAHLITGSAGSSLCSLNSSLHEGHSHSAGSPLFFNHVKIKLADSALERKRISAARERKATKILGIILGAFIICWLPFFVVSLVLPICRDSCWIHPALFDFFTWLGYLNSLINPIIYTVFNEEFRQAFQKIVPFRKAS

5-HT1Dβ receptors = 5-HT1Dβ receptors (Homo sapiens, UniProt P28222)
Chain of 5-HT1Dβ receptors (P28222 whole entry): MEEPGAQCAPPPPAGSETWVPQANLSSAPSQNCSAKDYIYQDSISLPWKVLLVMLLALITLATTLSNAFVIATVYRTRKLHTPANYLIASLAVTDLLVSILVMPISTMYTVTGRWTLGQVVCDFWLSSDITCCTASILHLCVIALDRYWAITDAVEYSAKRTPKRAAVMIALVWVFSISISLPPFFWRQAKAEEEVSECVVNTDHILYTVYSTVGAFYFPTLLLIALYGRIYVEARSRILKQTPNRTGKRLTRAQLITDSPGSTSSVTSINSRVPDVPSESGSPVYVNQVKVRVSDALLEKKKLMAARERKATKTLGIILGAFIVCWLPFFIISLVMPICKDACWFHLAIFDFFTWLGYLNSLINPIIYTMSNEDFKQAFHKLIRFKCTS

[6] = within 24 hours after treatment; sumatriptan-treated patients

Chain of dopamine D2L receptors (P14416 whole entry): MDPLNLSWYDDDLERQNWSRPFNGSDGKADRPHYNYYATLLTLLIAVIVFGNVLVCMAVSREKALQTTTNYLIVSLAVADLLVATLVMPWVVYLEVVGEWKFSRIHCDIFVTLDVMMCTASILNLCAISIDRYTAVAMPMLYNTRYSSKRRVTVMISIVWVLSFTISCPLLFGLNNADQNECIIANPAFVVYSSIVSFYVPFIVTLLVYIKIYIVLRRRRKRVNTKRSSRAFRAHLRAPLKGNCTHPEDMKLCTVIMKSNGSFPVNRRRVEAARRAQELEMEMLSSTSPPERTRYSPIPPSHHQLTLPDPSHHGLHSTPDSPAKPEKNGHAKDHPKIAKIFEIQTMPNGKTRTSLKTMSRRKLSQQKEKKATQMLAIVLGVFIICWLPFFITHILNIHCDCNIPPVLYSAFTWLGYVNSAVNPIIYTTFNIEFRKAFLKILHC

Structure (SMILES)	absorption through the gut [1]	binding affinity [2]	binding affinity (dopamine D2L receptors)	binding affinity [3]	binding affinity (dopamine D3 receptors)	binding affinity [4]	binding affinity [5]	binding affinity (5-HT1Dα receptors)	binding affinity (5-HT1Dβ receptors)	patients with headache reoccurrence [6]
CN1C[C@H](C(=O)N[C@]2(C)O[C@@]3(O)[C@@H]4CCCN4C(=O)[C@H](Cc4ccccc4)N3C2=O)C[C@@H]2c3cccc4[nH]cc(c34)C[C@H]21 [DHE, Dihydroergotamine]	poorly absorbed	high affinity	high affinity	high affinity	high affinity	high affinity	high affinity	high affinity	high affinity	
CNS(=O)(=O)Cc1ccc2[nH]cc(CCN(C)C)c2c1 [sumatriptan]										45%
